One block for each compound: values may come before it.
How the values were obtained:
cytochrome b5 [1] = conditions: read-out: affinity of binding to cytochrome b5; cited from earlier work
cytochrome b5 [2] = biological target: cytochrome b5 (Rattus norvegicus, UniProt P00173); assay: HSQC perturbation mapping: concentration dependence of hexacyclen-induced heteronuclear correlation peak shifts; format: binding; conditions: 1H-15N HSQC peak shifts, hexacyclen 0.5 to 8 mM, pH 7.0, 1 mM phosphate buffer, 40° C; read-out: dissociation constant
Description: Hexacyclen (1,4,7,10,13,16-hexaazacyclooctadecane)(Richman, J. E.; Atkins, T. J. 1974, J. Am. Chem. Soc., 96, 2268-2269) binds to cytochrome b5 such the HSQC spectra of cytochrome b5-hexacyclen is similar to the HSQC spectra of cytochrome b5-hemoglobin. The concentration dependence of hexacyclen-induced heteronuclear correlation peak shifts indicates a dissociation constant of roughly 2 mM. FIG. 2 illustrates the heteronuclear correlation spectra (HSQC spectra) of a 2 mM solution of cytochrome b5 by itself (black contours) and that of a solution containing 2 mM cytochrome b5 and 4 mM hexacyclen (gray contours). The inset in the upper left hand corner of the figure contains a plot of the hexacyclen dependence of the shifts in the peak to peak separation of aspartate 60 (D60) at concentrations of hexacylen ranging from 0.5 to 8 mM. The inset at the upper right is a model for the interaction of hexacyclen based on the shifts observed in the HSQC perturbation study. Solutions were buffered to a pH of 7.0 with 1 mM phosphate buffer and the spectra were recorded at 40° C. […]
The binding of the R1 and R3 moieties to cytochrome b5 is characterized using HSQC perturbation mapping experiments. […] Solutions were buffered to a pH of 7.0 with 1 mM phosphate buffer and the spectra were recorded at 40° C. […]

sickle cell patients = conditions: nearly 300 sickle cell patients; cited from earlier work

cytochrome b5 (Rattus norvegicus, UniProt P00173), sequence (P00173 whole entry): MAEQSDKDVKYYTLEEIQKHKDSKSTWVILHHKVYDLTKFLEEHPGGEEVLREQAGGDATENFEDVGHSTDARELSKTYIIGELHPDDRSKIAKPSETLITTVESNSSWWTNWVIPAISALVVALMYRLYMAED

Compound: Nc1ncnc2c1ncn2[C@H]1O[C@@H](COP(=O)(O)OP(=O)(O)OP(=O)(O)O)C(O)C1O (stereo partly drawn) [ATP, Adenosine 5′-triphosphate]
Kd (cytochrome b5 [1]): 180 µM

Kd (cytochrome b5 [2]): ~2000 µM
Compound: C1CNCCNCCNCCNCCNCCN1 [Hexacyclen, 1,4,7,10,13,16-hexaazacyclooctadecane]

Compound: NC(=O)NO [hydroxyurea]
occurrence of vaso-occlusive crises, reduced to % of that observed (sickle cell patients): roughly 50%
